Data on three molecules can be found in publication doi:10.64898/2025.12.09.693172, “Agonism of mosquito and human transient receptor potential ankyrin 1 (TRPA1) channels by the natural drimane sesquiterpene cinnamodial” (bioRxiv, 2025).

The target in experiment [1] is T1, HsTRPA1 (Homo sapiens, UniProt O75762).
T1 construct: gene TRPA1; cDNA construct from Saito and Tominaga, cRNA injected into Xenopus laevis oocytes; UniProt id printed for the modelled HsTRPA1 (residues 401-1119)
As to the kind of experiment: two-electrode voltage clamp, Xenopus oocytes. It counts as cell-based. To be noted: agonist, ND96 pH 7.5. For orientation: Two-electrode voltage clamp holds a large cell at a set potential and records current.

The target in experiment [2] is T1, HsTRPA1. Put plainly: two-electrode voltage clamp, Xenopus oocytes. It counts as cell-based.

T1 sequence (O75762 whole entry, the tested form may be a part): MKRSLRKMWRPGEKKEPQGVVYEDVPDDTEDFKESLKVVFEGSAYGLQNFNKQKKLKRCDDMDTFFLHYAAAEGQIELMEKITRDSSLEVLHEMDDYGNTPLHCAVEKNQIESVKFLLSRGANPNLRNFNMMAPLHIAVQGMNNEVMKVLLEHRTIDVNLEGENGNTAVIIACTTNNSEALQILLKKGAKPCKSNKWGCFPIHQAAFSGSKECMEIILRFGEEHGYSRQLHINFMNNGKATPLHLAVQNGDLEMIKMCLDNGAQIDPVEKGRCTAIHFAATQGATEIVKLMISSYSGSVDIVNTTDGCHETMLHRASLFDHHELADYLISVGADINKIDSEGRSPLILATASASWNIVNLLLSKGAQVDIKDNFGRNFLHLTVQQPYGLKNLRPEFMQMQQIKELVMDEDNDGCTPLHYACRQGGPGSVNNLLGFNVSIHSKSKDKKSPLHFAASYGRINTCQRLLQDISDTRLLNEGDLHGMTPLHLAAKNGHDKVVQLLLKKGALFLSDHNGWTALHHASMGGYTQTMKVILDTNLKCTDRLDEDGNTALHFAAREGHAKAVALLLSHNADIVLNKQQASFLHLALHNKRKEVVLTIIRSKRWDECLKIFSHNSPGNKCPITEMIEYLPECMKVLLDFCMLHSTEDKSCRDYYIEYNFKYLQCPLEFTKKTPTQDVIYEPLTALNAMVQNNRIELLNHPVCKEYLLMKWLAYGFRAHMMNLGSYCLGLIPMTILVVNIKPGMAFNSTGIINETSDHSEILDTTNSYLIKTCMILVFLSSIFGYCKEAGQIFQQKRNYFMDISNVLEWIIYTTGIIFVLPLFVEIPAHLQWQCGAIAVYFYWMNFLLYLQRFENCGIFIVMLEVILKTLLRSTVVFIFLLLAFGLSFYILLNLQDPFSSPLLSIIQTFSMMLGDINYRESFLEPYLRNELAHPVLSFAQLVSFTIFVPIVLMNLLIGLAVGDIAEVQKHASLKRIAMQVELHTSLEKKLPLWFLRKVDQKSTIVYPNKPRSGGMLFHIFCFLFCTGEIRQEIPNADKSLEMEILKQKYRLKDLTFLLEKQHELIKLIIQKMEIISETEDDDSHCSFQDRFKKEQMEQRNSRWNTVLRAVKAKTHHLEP

Consider `CC1=COC(=O)C2C(C)CCC12` (stereo not drawn) [nepetalactone], for which, on HsTRPA1 [1], the “% by which ΔIm at 1000 μM is lower than that of 10 μM CDIAL” value is reported as 98.8 ± 0.46%. `CC(=O)O[C@@H]1C=C(C=O)[C@](O)(C=O)[C@@]2(C)CCCC(C)(C)[C@H]12` [CDIAL] returned an EC50 on HsTRPA1 [2] of 2250 nM. That is a single-digit micromolar value.

In the case of `COCCCN(C(=O)CCl)c1nc(-c2ccc(OC)cc2)cs1` [JT010], the EC50 on HsTRPA1 [2] was determined as 800 nM.

As usually defined, the EC50 is the concentration needed to bring the measured effect to its halfway point. A high value points to a need for much substance.
